Results as given in the NIST ThermoML archive (doi:10.1021/je300873x).

Assay: mn = molality of the nth substance listed, in mol/kg
Settings: for surface tension liquid-gas: Pendant drop shape; for electrical conductivity: Liquid, Digital conductivity meter

CCCCCCCCCCCCCC[N+](C)(CCO)CCO.[Br-] [N,N-bis(2-hydroxyethyl)-N-methyltetradecanaminium bromide] + O
Settings | electrical conductivity [S/m] | surface tension liquid-gas [mN/m]
298.15 K, m1 = 0.0003 | – | 64.43
298.15 K, m1 = 0.00061 | – | 59.09
298.15 K, m1 = 0.00081 | – | 56.14
298.15 K, m1 = 0.00102 | – | 54.31
298.15 K, m1 = 0.00152 | – | 48.51
298.15 K, m1 = 0.00203 | – | 44.69
298.15 K, m1 = 0.00254 | – | 40.4
298.15 K, m1 = 0.0026 | 0.021 | –
298.15 K, m1 = 0.0027 | 0.0218 | –
298.15 K, m1 = 0.0028 | 0.0226 | –
298.15 K, m1 = 0.00292 | 0.0235 | –
298.15 K, m1 = 0.00305 | 0.0242 | 38.3
298.15 K, m1 = 0.00319 | 0.025 | –
298.15 K, m1 = 0.00334 | 0.0255 | –
298.15 K, m1 = 0.00351 | 0.0259 | –
298.15 K, m1 = 0.00369 | 0.0262 | –
298.15 K, m1 = 0.0039 | 0.0267 | –
298.15 K, m1 = 0.00412 | 0.0272 | –
298.15 K, m1 = 0.00438 | 0.0277 | –
298.15 K, m1 = 0.00467 | 0.0283 | 38.31
298.15 K, m1 = 0.00501 | 0.0289 | –
298.15 K, m1 = 0.00508 | – | 38.46
298.15 K, m1 = 0.00539 | 0.0298 | –
298.15 K, m1 = 0.00584 | 0.0306 | –
298.15 K, m1 = 0.00609 | – | 38.23
298.15 K, m1 = 0.00637 | 0.0317 | –
298.15 K, m1 = 0.00812 | – | 38.23
303.15 K, m1 = 0.00259 | 0.0232 | –
303.15 K, m1 = 0.00269 | 0.024 | –
303.15 K, m1 = 0.0028 | 0.025 | –
303.15 K, m1 = 0.00292 | 0.0257 | –
303.15 K, m1 = 0.00304 | 0.0268 | –
303.15 K, m1 = 0.00318 | 0.0278 | –
303.15 K, m1 = 0.00333 | 0.0282 | –
303.15 K, m1 = 0.0035 | 0.029 | –
303.15 K, m1 = 0.00369 | 0.0295 | –
303.15 K, m1 = 0.00389 | 0.03 | –
303.15 K, m1 = 0.00412 | 0.0305 | –
303.15 K, m1 = 0.00438 | 0.0311 | –
303.15 K, m1 = 0.00467 | 0.0318 | –
303.15 K, m1 = 0.005 | 0.0325 | –
303.15 K, m1 = 0.00539 | 0.0334 | –
303.15 K, m1 = 0.00584 | 0.0343 | –
303.15 K, m1 = 0.00637 | 0.0356 | –
308.15 K, m1 = 0.00259 | 0.0256 | –
308.15 K, m1 = 0.00269 | 0.0264 | –
308.15 K, m1 = 0.0028 | 0.0274 | –
308.15 K, m1 = 0.00291 | 0.0285 | –
308.15 K, m1 = 0.00304 | 0.0297 | –
308.15 K, m1 = 0.00318 | 0.0309 | –
308.15 K, m1 = 0.00333 | 0.0318 | –
308.15 K, m1 = 0.0035 | 0.0325 | –
308.15 K, m1 = 0.00368 | 0.0331 | –
308.15 K, m1 = 0.00388 | 0.0336 | –
308.15 K, m1 = 0.00411 | 0.0342 | –
308.15 K, m1 = 0.00437 | 0.0349 | –
308.15 K, m1 = 0.00466 | 0.0357 | –
308.15 K, m1 = 0.00499 | 0.0367 | –
308.15 K, m1 = 0.00538 | 0.0376 | –
308.15 K, m1 = 0.00583 | 0.0387 | –
308.15 K, m1 = 0.00636 | 0.0401 | –
313.15 K, m1 = 0.00258 | 0.028 | –
313.15 K, m1 = 0.00268 | 0.0291 | –
313.15 K, m1 = 0.00279 | 0.0303 | –
313.15 K, m1 = 0.00291 | 0.0314 | –
313.15 K, m1 = 0.00303 | 0.0327 | –
313.15 K, m1 = 0.00317 | 0.0341 | –
313.15 K, m1 = 0.00332 | 0.0353 | –
313.15 K, m1 = 0.00349 | 0.0364 | –
313.15 K, m1 = 0.00367 | 0.0373 | –
313.15 K, m1 = 0.00388 | 0.038 | –
313.15 K, m1 = 0.0041 | 0.0386 | –
313.15 K, m1 = 0.00436 | 0.0396 | –
313.15 K, m1 = 0.00465 | 0.0403 | –
313.15 K, m1 = 0.00498 | 0.0411 | –
313.15 K, m1 = 0.00537 | 0.0424 | –
313.15 K, m1 = 0.00582 | 0.0437 | –
313.15 K, m1 = 0.00634 | 0.0453 | –
318.15 K, m1 = 0.00258 | 0.0307 | –
318.15 K, m1 = 0.00268 | 0.0318 | –
318.15 K, m1 = 0.00279 | 0.033 | –
318.15 K, m1 = 0.0029 | 0.0344 | –
318.15 K, m1 = 0.00303 | 0.0355 | –
318.15 K, m1 = 0.00317 | 0.0372 | –
318.15 K, m1 = 0.00332 | 0.0389 | –
318.15 K, m1 = 0.00348 | 0.0407 | –
318.15 K, m1 = 0.00367 | 0.0413 | –
318.15 K, m1 = 0.00387 | 0.0425 | –
318.15 K, m1 = 0.0041 | 0.0436 | –
318.15 K, m1 = 0.00435 | 0.0446 | –
318.15 K, m1 = 0.00464 | 0.0455 | –
318.15 K, m1 = 0.00497 | 0.0467 | –
318.15 K, m1 = 0.00536 | 0.0478 | –
318.15 K, m1 = 0.0058 | 0.0494 | –
318.15 K, m1 = 0.00633 | 0.0511 | –
323.15 K, m1 = 0.00257 | 0.0334 | –
323.15 K, m1 = 0.00267 | 0.0347 | –
323.15 K, m1 = 0.00278 | 0.0359 | –
323.15 K, m1 = 0.0029 | 0.0374 | –
323.15 K, m1 = 0.00302 | 0.0388 | –
323.15 K, m1 = 0.00316 | 0.0406 | –
323.15 K, m1 = 0.00331 | 0.0424 | –
323.15 K, m1 = 0.00347 | 0.0444 | –
323.15 K, m1 = 0.00366 | 0.0464 | –
323.15 K, m1 = 0.00386 | 0.0477 | –
323.15 K, m1 = 0.00409 | 0.049 | –
323.15 K, m1 = 0.00434 | 0.0502 | –
323.15 K, m1 = 0.00463 | 0.0514 | –
323.15 K, m1 = 0.00496 | 0.0526 | –
323.15 K, m1 = 0.00535 | 0.054 | –
323.15 K, m1 = 0.00579 | 0.0559 | –
323.15 K, m1 = 0.00632 | 0.0577 | –
